A short description of data set [1]: Solid stability test (25°C, RH 60%, 30 days). It is filed as physicochemical. The settings on record: 25°C±2°C, relative humidity 60%±2%.
A short description of data set [2]: In vitro metabolic stability in rat plasma. The conditions noted are these: rat, plasma; 37°C, compound 10 μM; read-out: Rat plasma T1/2. Format: in vitro ADME.

As to `CC(OC(=O)SCCO)[n+]1cnn(C[C@](O)(c2ccc(F)cc2F)[C@@H](C)c2ncncc2F)c1` (some centres unmarked) [Compound 16037], in data set [1], the “Content increase of total impurity (25° C., placed for 30 days)” value came to 2.15%. For the same compound, the half-life at 10 µM in data set [2] stood at 7.65 ± 0.78 min.

Source of the values: US11040958B2, “Triazole antimicrobial derivative, pharmaceutical composition and use thereof” (priority 2017, dated 2021).
